According to PubChem BioAssay AID2060617 (Molecular Pharmacology Branch, DTP, NCI, 2025):

Test system: 485368-065-R4-J2-PDC spheroids with HUVEC/MSC, viability
Experiment: Anticancer human tumor 485368-065-R4-J2-PDC patient-derived pancreatic carcinoma cell line growth inhibition [CLK]
Details: for viability, T/C: stronger effect = lower value
Description: A high-throughput screen of multi-cell type tumor spheroids was designed to identify active combinations of […] and targeted small molecules. Complex spheroids include a stromal component modeled by human endothelial cells (HUVEC) and fibroblasts modeled by human mesenchymal stem cells (MSCs). The concentration ranges selected for each drug and investigational agent were based upon clinically achievable concentrations if the clinical Cmax of the agent was known.
Compounds. The drugs and investigational agents: cirtuvivint (SM08502; NSC835563), CC-671 (NSC850746), vemurafenib (NSC761431), tapotoclax (NSC804041), sotorasib (NSC818433), adagrasib (NSC831453), MRTX-1133 (NSC836407), BAY2416964 (NSC825713), copanlisib (NSC816437), inavolisib (NSC800729), abemaciclib (NSC768073), osimertinib (NSC779217), entinostat (NSC756642), eltanexor (KPT-8602, NSC794443), venetoclax (NSC766270), ceralasertib (NSC777638), bortezomib (NSC756655), olaparib (NSC753686), talazoparib (NSC767125), alisertib (NSC759677), peposertib (NSC802822), gemcitabine (NSC613327), 5-fluorouracil (NSC19893), SN-38 (NSC673596), oxaliplatin (NSC266046), paclitaxel (NSC125973), and doxorubicin (NSC123127), were obtained from the National Cancer Institute (NCI) Developmental Therapeutics Program Chemical Repository. The FDA-approved anticancer drug set is available from the Developmental Therapeutics Program at https://dtp.cancer.gov/organization/dscb/obtaining/available plates.htm. […] The stock solutions were prepared in dimethyl sulfoxide (DMSO, Sigma-Aldrich, St. Louis, MO, cat. D2650), except for the platinum complexes which were prepared in saline (Quality Biological, Gaithersburg, MD, cat. 114-055-101), at 800-fold the tested concentration and stored at -70 degrees C prior to their use. All drugs and investigational agents were tested over a range starting from a high concentration at or near the clinical Cmax and decreasing in half-log increments. If the clinical Cmax for an agent had not been determined, the highest concentration tested was 10 microM.
Cell Culture. All cells were maintained in an incubator at 37 degrees C and 5% CO2 with 95% humidity. The PDC lines were cultured according to standard operating procedures established by the NCI PDMR. Briefly, all PDCs were thawed and cultured in Matrigel-coated flasks prepared with a working solution of 1X Ham's F-12 nutrient mix, without supplementation (Invitrogen, Waltham, MA, cat. 11765054), 100 U/mL penicillin-streptomycin (Invitrogen, cat. 15140122), and 2.5% Matrigel (Corning Inc., Corning, NY, cat. 354248) for the first three passages. The 947758-054-R-J2-PDC line was cultured in 6B/Colon 1A media, which includes advanced DMEM/F-12 (Thermo Fisher Scientific, cat. 12634028), 10 mM HEPES (Thermo Fisher Scientific, cat. 15630080), 1X GlutaMAX supplement (Thermo Fisher Scientific, cat. 35050061), 0.1 mg/mL primocin (InvivoGen, cat. ant-pm-2), 10% defined fetal bovine serum, heat inactivated (HyClone Laboratories Inc., cat. SH30070.03HI), 1.25 mM N-Acetyl-L-cysteine (Sigma-Aldrich, cat. A9165), 10 mM nicotinamide (Sigma-Aldrich, cat. N0636), 1X B-27 supplement (Thermo Fisher Scientific, cat. 17504044), 1X N-2 supplement (Thermo Fisher Scientific, cat. 17502048), and 10 microM Y-27632 dihydrochloride (Tocris Bioscience, cat. 1254). The 876862-298-R-J1-PDC was cultured in 6E media, which includes all 6B/Colon 1A media components plus 50% L-WRN conditioned media (ATCC, cat. CRL-3276), 50 ng/mL recombinant human EGF recombinant protein (hEGF; Thermo Fisher Scientific, cat. PHG0311), 10 ng/mL recombinant human fibroblast growth factor 10 (hGFG-10; PeproTech, cat. 100-26), 1 ng/mL recombinant human fibroblast growth factor 2 (hFGF-2; PeproTech, cat. 100-18B), and 1 µM prostaglandin E2 (PGE2; Tocris, cat. 2296). The 227483-062-R1-J1-PDC line was cultured in Panc media, containing all 6E components except hFGF-2, with the addition of 500 nM SB-431542 (Selleckchem, cat. S1067) and 10 nM gastrin (Tocris, cat. 3006). […]
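Further: spheroids exposed to compounds for seven days.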
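Wherever viability, T/C is given: 100% = DMSO vehicle control wells.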

Which results are given for `CN1CCN(c2cc(C(=O)Nc3cc4cc(-c5cnn(C)c5)ccc4cn3)ccn2)CC1`?
viability, T/C (compound 0.0316 µM): 95.6% [middle of 12 runs]; viability, T/C (compound 0.316 µM): 83% [middle of 12 runs]; viability, T/C (compound 1 µM): 0.9% [middle of 11 runs]; viability, T/C (compound 3.16 µM): 1.39% [middle of 12 runs]; viability, T/C (compound 10 µM): 1.68% [middle of 11 runs]; IC50 (compound alone, run of 08/14/2023): 504 nM [middle of 12 runs]

Which IC50 (curve of first compound, second compound 0.0316 µM) does the source give for `O=c1[nH]cc(F)c(=O)[nH]1` + CNC(=O)c1ccc(Nc2nc(OC3CCCC3)c3c(-c4ccc5nc(C)oc5c4)c[nH]c3n2)c(OC)c1 here?
Its IC50 is over 10 µM.

And the IC50 (curve of first compound, second compound 0.1 µM)?
Its IC50 is over 10 µM.

What about the IC50 (curve of first compound, second compound 0.316 µM) of the same compound?
The IC50 was over 10 µM.

And the IC50 (curve of first compound, second compound 1 µM)?
Its IC50 is over 10 µM.

What about the IC50 (curve of first compound, second compound 3.16 µM) of the same compound?
Its IC50 is over 10 µM.

And the IC50 (curve of first compound, second compound 10 µM)?
The IC50 was over 10 µM.

And the viability, T/C (second compound 0.0316 µM, first compound 0.0316 µM)?
The viability, T/C was 82%.

And the viability, T/C (second compound 0.0316 µM, first compound 0.1 µM)?
Its viability, T/C is 98.8%.

What about the viability, T/C (second compound 0.0316 µM, first compound 0.316 µM) of the same compound?
The viability, T/C was 80.4%.

And the viability, T/C (second compound 0.0316 µM, first compound 1 µM)?
Its viability, T/C is 97.6%.

What about the viability, T/C (second compound 0.0316 µM, first compound 3.16 µM) of the same compound?
The viability, T/C was 95.1%.

And the viability, T/C (second compound 0.0316 µM, first compound 10 µM)?
Its viability, T/C is 81%.

What about the viability, T/C (second compound 0.1 µM, first compound 0.0316 µM) of the same compound?
Its viability, T/C is 95.5%.

What about the viability, T/C (second compound 0.1 µM, first compound 0.1 µM) of the same compound?
The viability, T/C was 99.2%.

What about the viability, T/C (second compound 0.1 µM, first compound 0.316 µM) of the same compound?
The viability, T/C was 97%.

What about the viability, T/C (second compound 0.1 µM, first compound 1 µM) of the same compound?
Its viability, T/C is 103%.

What about the viability, T/C (second compound 0.1 µM, first compound 3.16 µM) of the same compound?
Its viability, T/C is 93.6%.

And the viability, T/C (second compound 0.1 µM, first compound 10 µM)?
Its viability, T/C is 82.3%.

What about the viability, T/C (second compound 0.316 µM, first compound 0.0316 µM) of the same compound?
The viability, T/C was 81.4%.

What about the viability, T/C (second compound 0.316 µM, first compound 0.1 µM) of the same compound?
Its viability, T/C is 80.7%.

What about the viability, T/C (second compound 0.316 µM, first compound 0.316 µM) of the same compound?
Its viability, T/C is 81.3%.

What about the viability, T/C (second compound 0.316 µM, first compound 1 µM) of the same compound?
Its viability, T/C is 82%.

What about the viability, T/C (second compound 0.316 µM, first compound 3.16 µM) of the same compound?
The viability, T/C was 87.3%.

What about the viability, T/C (second compound 0.316 µM, first compound 10 µM) of the same compound?
The viability, T/C was 74.2%.

What about the viability, T/C (second compound 1 µM, first compound 0.0316 µM) of the same compound?
The viability, T/C was 79.2%.

And the viability, T/C (second compound 1 µM, first compound 0.1 µM)?
Its viability, T/C is 83.7%.

What about the viability, T/C (second compound 1 µM, first compound 0.316 µM) of the same compound?
Its viability, T/C is 75%.

What about the viability, T/C (second compound 1 µM, first compound 1 µM) of the same compound?
Its viability, T/C is 75.9%.

What about the viability, T/C (second compound 1 µM, first compound 3.16 µM) of the same compound?
The viability, T/C was 71%.

And the viability, T/C (second compound 1 µM, first compound 10 µM)?
Its viability, T/C is 62.8%.

And the viability, T/C (second compound 3.16 µM, first compound 0.0316 µM)?
Its viability, T/C is 69.4%.

What about the viability, T/C (second compound 3.16 µM, first compound 0.1 µM) of the same compound?
The viability, T/C was 70.4%.

What about the viability, T/C (second compound 3.16 µM, first compound 0.316 µM) of the same compound?
Its viability, T/C is 69.5%.

What about the viability, T/C (second compound 3.16 µM, first compound 1 µM) of the same compound?
The viability, T/C was 73.3%.

And the viability, T/C (second compound 3.16 µM, first compound 3.16 µM)?
The viability, T/C was 68.1%.

What about the viability, T/C (second compound 3.16 µM, first compound 10 µM) of the same compound?
Its viability, T/C is 64.1%.

What about the viability, T/C (second compound 10 µM, first compound 0.0316 µM) of the same compound?
Its viability, T/C is 63.3%.

What about the viability, T/C (second compound 10 µM, first compound 0.1 µM) of the same compound?
The viability, T/C was 69.6%.

And the viability, T/C (second compound 10 µM, first compound 0.316 µM)?
The viability, T/C was 72.1%.

What about the viability, T/C (second compound 10 µM, first compound 1 µM) of the same compound?
Its viability, T/C is 64.1%.

And the viability, T/C (second compound 10 µM, first compound 3.16 µM)?
Its viability, T/C is 67%.

What about the viability, T/C (second compound 10 µM, first compound 10 µM) of the same compound?
The viability, T/C was 51.8%.
